Data published in PubChem BioAssay (NCI).
Where “and” joins values, the source holds several entries; their conditions need not be identical. Equal values may be shown once.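 Interpolation was linear, between the two tested concentrations surrounding the appropriate level; five concentrations were tested over 48 hours in 96-well plates. GI50 is the concentration that inhibits growth by half. TGI: concentration producing complete growth inhibition.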

Assays:
Assay in all cases: NCI tumour cell line growth inhibition, 48 h
DLD-1 colon = system: DLD-1 colon
RXF 393 renal = system: RXF 393 renal
M19-MEL melanoma = system: M19-MEL melanoma
EKVX NSCLC = system: EKVX NSCLC
SNB-19 CNS = system: SNB-19 CNS
K-562 leukemia = system: K-562 leukemia
M14 melanoma = system: M14 melanoma
XF 498 CNS = system: XF 498 CNS
MCF7 breast = system: MCF7 breast
NCI/ADR-RES ovarian = system: NCI/ADR-RES ovarian
MDA-MB-435 = system: MDA-MB-435

Row | Compound | TGI (DLD-1 colon) | TGI (RXF 393 renal) [µM] | TGI (M19-MEL melanoma) | TGI (EKVX NSCLC) | TGI (SNB-19 CNS) [µM] | TGI (K-562 leukemia) | TGI (M14 melanoma) | TGI (XF 498 CNS) | TGI (MCF7 breast) [µM] | TGI (NCI/ADR-RES ovarian) [µM] | TGI (MDA-MB-435) [µM] | GI50 (M19-MEL melanoma) | GI50 (K-562 leukemia)
1 | CCCN(CCCC(NC(C)=O)C(=O)NCc1ccccc1)C(=O)NC (configuration not stated) | > 100 µM | > 100 | > 100 µM | > 100 µM | > 100 | > 100 µM | > 100 µM | – | – | – | – | – | –
2 | COc1nc(SC)nc2c1cnn2C1OC(C(O)CO)C(OC)C1O (configuration not stated) | > 100 µM | > 100 | > 100 µM | > 100 µM | > 100 | > 100 µM | – | > 100 µM | > 100 | > 100 | – | – | –
3 | CC(=O)O/N=C/c1ncccc1OC(C)=O | > 100 µM | > 100 | > 100 µM | > 100 µM | > 100 | > 100 µM | > 100 µM | > 100 µM | – | – | – | – | –
4 | CCOC(=O)c1c(C)c2c(n1C)CCc1cn[nH]c1-2 | > 100 µM | > 100 | > 100 µM | > 100 µM | > 100 | > 100 µM | – | > 100 µM | > 100 | > 100 | – | – | –
5 | Clc1ccc(SCCSCCCCCCCCCCSCCSc2ccc(Cl)cc2)cc1 | > 100 µM | > 100 | – | > 100 µM | > 100 | > 100 µM | – | – | – | – | – | – | –
6 | NC(=O)N1N=C2c3ccccc3CC[C@@H]2C1c1ccccc1 (some centres not stated) | > 100 µM | > 100 | > 100 µM | > 100 µM | > 100 | > 100 µM | > 100 µM | – | – | – | – | – | –
7 | CCCn1c(SCC)c2ccccc2c1-c1nc(F)nc(F)n1 | – | > 100 | > 100 µM | > 100 µM | > 100 | > 100 µM | > 100 µM | > 100 µM | – | – | – | – | –
8 | COC(=O)C(CCCC1(c2ccccc2)OCCO1)C(C)=O (configuration not stated) | > 100 µM | > 100 | > 100 µM | > 100 µM | > 100 | > 100 µM | > 100 µM | > 100 µM | – | – | – | – | –
9 | COc1cc2c(c(C)c1O)[C@H]1COc3ccccc3[C@H]1O2 | > 100 µM | 54 | 25 µM | 74.7 µM | 26.7 | 56.5 µM | 24.6 µM | – | – | – | – | – | –
10 | COC(=O)C1=C(C(=O)OC)C2(OC(C)=O)c3ccccc3-c3ccccc3C12 (configuration not stated) | 3.28 µM | 9.17 | 8.79 µM | 24.1 µM | > 55 | – | 9.47 µM | 26.1 µM | – | – | – | – | –
11 | O=C(O)C1CCCN1Cc1cc2ccccc2c2ccccc12 (configuration not stated) | – | > 100 | – | > 100 µM | > 100 | > 100 µM | > 100 µM | – | > 100 | > 100 | > 100 | – | –
12 | O=C(NNC(=S)Nc1ccccc1)c1ccccc1Nc1ccccc1C(=O)NNC(=S)Nc1ccccc1 | – | 45.4 | – | 85.3 µM | 72.4 | > 100 µM | 41.5 µM | – | 83.8 | > 100 | > 100 | – | –
13 | CSC(C1c2ccccc2N(C)C2=NC(=O)N(C)C(=O)C21Cl)S(=O)(=O)c1ccc(C)cc1 (configuration not stated) | > 100 µM | – | > 100 µM | > 100 µM | > 100 | 43.5 µM | – | > 100 µM | – | – | – | – | –
14 | COc1cc(-c2oc3c(OC)c(O)c(OC)c(O)c3c(=O)c2OC)cc(O)c1OC | – | 79.4 | – | > 100 µM | > 100 | > 100 µM | > 100 µM | – | > 100 | 52.7 | 77.6 | – | –
15 | COC(OC)c1cccc2c1C(=O)CCC1(O)c3ccccc3C1C2 (configuration not stated) | > 100 µM | – | > 100 µM | > 100 µM | > 100 | > 100 µM | > 100 µM | > 100 µM | – | – | – | – | –
16 | CC1(C)N=C(C(N)=O)c2ncn(-c3ccccc3)c2N1 | – | > 100 | – | > 100 µM | > 100 | > 100 µM | > 100 µM | – | > 100 | > 100 | > 100 | – | –
17 | O=C1C(/C=C/c2ccc(Cl)cc2)=NNC2N1N=C1NC(=O)C3(NN12)c1ccccc1-c1ccccc13 (configuration not stated) | – | > 100 | – | > 100 µM | > 100 | > 100 µM | > 100 µM | – | > 100 | > 100 | > 100 | – | –
18 | Cc1c(CCOC=O)c(=O)[nH]c2nncn12 | – | > 100 | – | > 100 µM | > 100 | > 100 µM | > 100 µM | – | > 100 | > 100 | > 100 | – | –
19 | COc1cc(C2C(Cl)C(=O)N2NC(=O)c2ccccc2O)ccc1O (configuration not stated) | > 100 µM | > 100 | > 100 µM | – | > 100 | > 100 µM | > 100 µM | > 100 µM | – | – | – | – | –
20 | CCCCC(=O)Nc1ccc2cc(C(=O)OC)c(ON3C(=O)c4ccccc4C3=O)nc2n1 | – | 52.3 | – | > 100 µM | > 100 | > 100 µM | 43.3 µM | – | > 100 | > 100 | > 100 | – | –
21 | O=C1C(CN2CCCCC2)CCCC1CN1CCCCC1 (configuration not stated) | 31.5 µM and 32 µM | 31.6 | > 57.1 µM and 36.7 µM | 38 µM and 39.8 µM | > 100 | 15.8 µM and 25.5 µM | > 52.2 µM and 39.5 µM | 33.4 µM and 39.8 µM | 7.87 | 55.9 | 30.9 | > 43 µM and 19.8 µM | 8.04 µM and 3.15 µM
22 | COC1=CC(=O)[C@H]2[C@H](C)C(c3ccccc3)[C@@]2(C)C1=O (some centres not stated) | > 100 µM | > 100 | > 100 µM | > 100 µM | > 100 | > 100 µM | > 100 µM | > 100 µM | – | – | – | – | –
23 | COc1ccc(N2C(=O)C3ON(C(C(N)=O)c4ccccc4)C(c4ccc(-c5ccccc5)cc4)C3C2=O)cc1 (configuration not stated) | – | > 50 | – | > 50 µM | > 50 | > 50 µM | > 50 µM | – | > 50 | > 50 | > 50 | – | –
24 | Nc1nc(SCCNC(=O)CCc2ccc(O)cc2)nc2c1ncn2C1OC(CO)C(O)C1O (configuration not stated) | > 203 µM | – | > 203 µM | – | > 203 | > 203 µM | > 203 µM | > 203 µM | – | – | – | – | –
25 | Cc1cn(C2CCC(/C=N\O)O2)c(=O)[nH]c1=O (configuration not stated) | – | > 100 | – | > 100 µM | > 100 | > 100 µM | > 100 µM | – | > 100 | > 100 | > 100 | – | –
26 | CC(C)NC(=O)CN1CCN(C2=CC(=O)c3c(O)ccc(O)c3C2=O)CC1 | – | 33.2 | – | 33.6 µM | 37.2 | > 100 µM | 22.3 µM | – | 9.35 | 25.5 | 3.76 | – | –
27 | CC1OC(OC2C(O[C@H]3CC[C@@]4(C)[C@@H](CC[C@@H]5[C@@H]4CC[C@]4(C)[C@@H]6[C@H](C[C@@H]54)O[C@]4(CC[C@@H](C)CO4)[C@H]6C)C3)OC(CO)C(OC3OC(CO)C(O)C(OC4OCC(O)C(O)C4O)C3OC3OCC(O)C(O)C3O)C2O)C(O)C(O)C1O (some centres not stated) | – | 1.85 | – | 2.95 µM | 2.33 | > 100 µM | 0.963 µM | – | 0.914 | 3.13 | 2.74 | – | –
28 | CC1=C2C(=O)[C@H]3[C@@H](CC=C4C[C@@H](O)CC[C@@]43C)[C@@H]2CC[C@]12O[C@@H]1C[C@H](C)CN[C@H]1[C@H]2C | 97.1 µM | > 53 | 85.3 µM | > 66.7 µM | > 57.6 | > 100 µM | > 60.4 µM | – | > 100 | > 100 | > 100 | – | –
29 | CC1(c2nc3cc(Cl)c(Cl)cc3[nH]2)CCC(CO)C(C)(C)O1 (configuration not stated) | – | > 100 | – | 87 µM | > 100 | > 100 µM | 92.5 µM | – | > 100 | 44.5 | > 100 | – | –
